These results are taken from a melting point compilation (Tetko et al.; mined from patent text by program, amines drawn as free bases though some values may be those of a salt).

As a reminder, the melting point is the temperature, or range, at which the solid turns liquid. `CCN(CC)C(=O)c1ccc(C(=O)N2CCN(c3ncccc3NC(C)C)CC2)cc1` displayed a melting point of 78 to 80 °C.
With `CC[C@@H](O)CC(=O)N[C@H]1CC[C@H](CCN2CCN(c3nccc4c3OCC4)CC2)CC1` the figure was 146 °C.
In the case of `CC(=O)c1cc(Cl)cc(Oc2ncccc2C(=O)NCc2ccc(C(C)(C)O)cc2)c1` it was 110 to 112 °C; in that of `OCc1nccc(N2CCCC2)c1Cl`, 85 to 86 °C; in that of `CC(=O)Nc1ccc2oc(-c3ccc(OCc4ccccc4)cc3)c(O)c(=O)c2c1`, 255 to 258 °C.
With `CN(C)C=C(C=O)c1ccc(C(F)(F)F)cc1` the figure was 97 °C; with `COc1ccc(-n2nnc(-c3ccc(Cl)cc3C(F)(F)F)c2N)cc1`, 159 to 160 °C.
`CS(=O)(=O)c1ccc(Cl)cc1C1NC(=O)NC1=O` (stereo unspecified) came in with a melting point of 238 to 240 °C.
In the case of `CC(=Cc1cccc([N+](=O)[O-])c1)C(=O)O` it was 201 to 202 °C.
In the case of `O=C(NCCC(=O)N1CCCCC1)c1ccc(-c2ccc3nnn(Cc4ccc5ncccc5c4)c3n2)cc1F` it was 109 to 111 °C; in that of `Cc1ccc(S(=O)(=O)OCC2Cc3cccc(-c4ccccc4C)c3O2)cc1` (stereo unspecified), 98 to 100 °C; in that of `COc1ccccc1CS(=O)(=O)Cc1ccccc1OC`, 90 to 92 °C.
In the case of `CSc1ncc(C(C)O)c(N)n1` (stereo unspecified) it was 140 to 142 °C; in that of `O=C(NCCc1ccc(OCc2ccccc2)c(OCc2ccccc2)c1CCc1cccc(OCc2ccccc2)c1)C(F)(F)F`, 142 to 144 °C.
`COc1ccc(-c2c(Cl)c(CN3C(=O)CCC3=O)nc3sc4c(c23)CC(C)(C)C(=O)C4(C)C)cc1`: the melting point lay within 214 to 216 °C.
In the case of `CC(C)(C)c1ccc(/C=N/OCCOc2ccc(C(=O)O)c(OC(=O)c3ccc(C(F)(F)F)cc3)c2)cc1` it was 146 to 148 °C.
With `O=Cc1cccc(NC(=O)NC2N=C(c3ccccc3F)c3ccccc3N(CC(=O)N3CC4CCC(CC4)C3)C2=O)c1` (racemic) the figure was 164 to 182 °C.
With `Nc1c([N+](=O)[O-])sc2cccc(Cl)c12` the figure was 174 to 175 °C.
Regarding `O=C(O)c1cn(C2CC2)c2cc(N3CCC4(C3)OCCO4)c(F)cc2c1=O`, the melting point was 229 to 230 °C.
With `Cc1[nH]c(=S)[nH]c1C(N)=O` the figure was less than 300 °C; with `COC(=O)c1cc2cc(NC(C)=O)ccc2o1`, 158 to 159 °C.
The compound `COc1cc(-c2ccccc2F)nc(-c2cccc(C)n2)n1` registered a melting point of 99.5 °C.
With `COC(=O)C1C2C=CC(C2)C1NC(=O)OCc1ccccc1` (stereo unspecified) the figure was 73 to 76 °C.
For the compound `NNC(=O)N(NC(=O)CSC(=O)c1ccccc1)C(=O)CSC(=O)c1ccccc1`, the melting point was in the range of 184 to 190 °C.
In the case of `COc1cc2c(Nc3ccc(Cl)cc3F)ncnc2cc1OCCOc1ccncc1` it was 200 to 202 °C; in that of `C=CCOc1cc(C(O)CS(C)(=O)=O)cc(OCC=C)c1NC(C)=O` (stereo unspecified), 162 °C.
With `CC(=O)Nc1c2oc3cc(Cl)ccc3c2nn1C` the figure was 290 to 300 °C; with `CN1CC(=O)Nc2ccc(Br)cc2C1=O`, 260 to 261 °C.
In the case of `N#Cc1c(N)nc2ccccc2c1NCc1ccccc1` it was 206 °C; in that of `C[C@H](Cn1cccn1)n1cnc2cc3c(=O)n([C@H](C)Cn4cc(Cl)cn4)cnc3cc2c1=O`, 231 to 232 °C.
Turning to `COC(=O)CCn1c(C(=O)NCC(=O)N(CC2CCCCC2)c2c(OC)cc(C)cc2OC)cc2ccccc21`, the melting point turned out to be 68 °C.
For the compound `C[C@H](CSC(=O)c1ccccc1)C(=O)N1C(c2cccs2)SC[C@H]1C(=O)O` (stereo partly specified), the melting point lay within 136 to 137 °C.
For the compound `O=S(c1ccccc1)c1ncc(Cl)cn1` (stereo unspecified), the melting point was found to be 115 °C.
With `COC(=O)[C@H]1C[C@H](NC(=O)c2cccc(CNC(=O)OC(C)(C)C)c2)c2c(Cl)cc(Cl)cc2N1` (relative stereo) the figure was 222 to 223 °C; with `O=c1c2c(n(-c3ccccc3)c3ncccc13)CCC(O)C2` (stereo unspecified), 283 to 286 °C.
As for `O=C(O)Cc1cccc(Oc2cccc(Cl)c2)c1O`, the melting point was in the range of 99 to 102 °C.
With `O=C(CC(=O)c1cc(CN2CCOCC2)sc1Cl)NCc1ccc(Cl)cc1` the figure was 109 to 112 °C.
As to `CC(C)=C1C(=O)N(c2cccc3c(N)cccc23)C(=O)/C1=C(\C)c1cc(-c2ccccc2)sc1C`, the melting point lay in the range of 155 to 158 °C.
In the case of `Cc1ccc2cc(-c3cccc4ccccc34)nc(N3CCN(C)CC3)c2c1` it was 150 °C; in that of `CS(=O)(=O)OC[C@@H]1CCC(=O)N1`, 72 to 74 °C; in that of `Cc1c(NC(=O)c2ccc(OCc3ccc(F)cc3)cc2)ccc2cc(CN3CCCC3)cnc12`, 177 to 178 °C.
In the case of `Cc1cc(C)c(OP(Oc2c(C)cc(C)cc2C)Oc2c(C)cc(C)cc2C)c(C)c1` it was 92 to 95 °C; in that of `CCN1CCNC(=O)C1c1ccc(N)cc1` (stereo unspecified), 153 to 154 °C; in that of `CCCCCc1ccc2cc(O)ccc2c1`, 94 to 95 °C.
With `Cc1nc(-n2cc(CCC3CCCCC3)nn2)sc1C(=O)NCc1ccccc1` the figure was 82 to 84 °C; with `O=C(Nc1ccc2c(c1)CCC2=O)c1ccc(-c2ccccc2)cc1`, 217 to 219 °C; with `CC(=O)On1c(=O)c(=O)[nH]c2cc(Cl)ccc21`, 219 °C.
Consider `CC(C)(C)c1cc(-c2c(C(=O)O)c(=O)oc3cc4c(cc23)CCC4)cc(C(C)(C)C)c1O`, for which the melting point lay in the range of 256 to 260 °C.
With `COc1cc2c3ccc(OC)c(OC)c3n(C(=O)c3ccc4ccccc4c3)c2cc1OC` the figure was 137 to 141 °C.
Consider `CCOC(=O)c1c2n(c3c(Br)c(N4CCN(C)CC4)c(F)cc3c1=O)C(C)S2` (stereo unspecified), for which the melting point was in the range of 189 to 190 °C.
`COc1cccc(S(=O)(=O)N(C)C)c1C#N`: the melting point lay in the range of 121 to 128 °C.
In the case of `COc1c(N2CCC(NC(=O)OCc3ccccc3)C(C)(C)C2)c(F)cc2c(=O)c(C(=O)O)cn(C3CC3)c12` (stereo unspecified), the melting point lay within 158 to 160 °C.
Compound `COCCOc1cc(C)nc(NC(=O)NS(=O)(=O)c2ccccc2Cl)n1` displayed a melting point of 130 to 140 °C.
With `COc1ccc(-c2c(Cl)c(CN3C(=O)CCC3=O)nc3sc4c(c23)CCNC4)cc1` the figure was 225 to 226 °C; with `Nc1nc2ccccc2c2c1nc(COc1ccccc1)n2CCOc1ccccc1`, 168 to 170 °C.
In the case of `Clc1ccc(Nc2ncc(Sc3ccncc3)c3ccccc23)cc1` it was 192 to 195 °C; in that of `OCC[C@@H]1CCCC[C@@H]1c1ccccc1` (relative stereo), 48 to 50 °C; in that of `COCCOCCCOc1ccc(/C=C/C(=O)O)c(Oc2ncc(C(F)(F)F)cc2Cl)c1`, 103 to 104 °C.
In the case of `N#Cc1[nH]c(-c2ccc(Cl)cc2)c(C#N)c1Br` it was more than 225 °C.
Compound `CCn1cc(C(=O)O)c(=O)c2cc(F)c(-c3csc(CN)n3)c(NC)c21` gave a melting point of 194 to 195 °C.
With `Cc1nc(-n2cc(-c3ccsc3)nn2)sc1C(=O)NCc1ccccc1` the figure was 123 to 126 °C.
